“And” between values parts separate entries of the source, which are not always exact repeats. Equal values may be shown once.
Legend:
[1] = tested on: DUSP6 mRNA in KP-4 xenograft tumors; assay: In vivo PD by DUSP6 qPCR and PK/PD relationship; set-up: species or system mouse
Method: (§1) Tumor-bearing animals were randomized and assigned into groups (n = 1–10/group). The vehicle at 10 mL/kg or RMC-6236 at indicated doses was administered via oral gavage daily, and animals were treated for 28 days, or up to 90 days if PFS was being assessed. […] For single-dose PKPD study, mice were randomized and assigned into groups (n = 3/dose/time point). A single dose of RMC-6236 was administered orally at either 3, 10, or 25 mg/kg. Blood and tissues, including the tumor, brain, colon, ear skin, and muscle, were harvested at indicated time points. Whole blood was collected in K2EDTA Microtainer tubes, incubated for 5 minutes, and snap-frozen in liquid nitrogen. The tissue was either fixed in 10% formalin or snap-frozen in liquid nitrogen for further analysis.
(§2) RNA was extracted from at least 20 mg of tissue using an RNeasy Mini Kit (Qiagen, 74104) and a High-Throughput Tissue grinder following the manufacturer's protocol. Reverse transcription was carried out using High-Capacity cDNA Reverse Transcription Kit (ABI, 4368814) according to the manufacturer's protocol. The cDNA product was used for qPCR analysis using TaqMan Gene-Expression Master Mix (ABI, 4369016). TaqMan primer probes specific to DUSP6 (human—Hs00737962_m1, murine—Mm00518185_m1, FAM-MGB) and 18S (RNA18S1; human—Hs99999901_s1, murine—Mm03928990_g1, FAM-MGB, used as an internal control gene) were used to detect the levels from each sample in duplicates using a 10 µL final reaction volume in a 384-well clear optical reaction plate. For qPCR, Ct values of DUSP6 and 18S were obtained for analysis. DUSP6 Ct value was normalized to 18S, and then the mean relative mRNA expression levels of each group were normalized to the vehicle control group. Values were plotted as relative change in mRNA expression compared with vehicle. Means ± SEM were shown.
(§3) Concentrations of RMC-6236 in tumor or normal tissues and percentage of DUSP6 inhibition as compared with the vehicle control from individual animals were collected and analyzed post a single dose of RMC-6236 ranging from 0.3 to 100 mg/kg (Supplementary Table S6). A 3-parameter sigmoidal exposure–response model was fitted to the data in GraphPad Prism to derive EC50 and EC90 values.

[2] = tested on: DUSP6 mRNA in HPAC xenograft tumors; assay: In vivo PD by DUSP6 qPCR and PK/PD relationship; set-up: species or system mouse; conditions: individual animals
Method: as §1, §2, §3

## CCn1c(-c2cc(N3CCN(C)CC3)cnc2[C@H](C)OC)c2c3cc(ccc31)-c1csc(n1)C[C@H](NC(=O)[C@H]1C[C@@H]1C)C(=O)N1CCC[C@H](N1)C(=O)OCC(C)(C)C2 [RMC-6236]
[1]; KP-4 (25 mg/kg x 31d), 8h
  DUSP6 mRNA(% normalized to control): 3.6%
[1]; KP-4 (25 mg/kg x 31d), 24h
  DUSP6 mRNA(% normalized to control): 36.2%
[1]; KP-4 (25 mg/kg), 2h
  DUSP6 mRNA(% normalized to control): 115.7%
[1]; KP-4 (25 mg/kg), 4h
  DUSP6 mRNA(% normalized to control): 18.9%
[1]; KP-4 (25 mg/kg), 8h
  DUSP6 mRNA(% normalized to control): 10.7%
[1]; KP-4 (25 mg/kg), 12h
  DUSP6 mRNA(% normalized to control): 4.3%
[1]; KP-4 (25 mg/kg), 24h
  DUSP6 mRNA(% normalized to control): 37.1%
[1]; KP-4 (25 mg/kg), 48h
  DUSP6 mRNA(% normalized to control): 48.3%
[1]; KP-4, study KP-4 #3, 25 mg/kg, 4h
  % inhibition of DUSP6 vs control: 83.13% and 97.7% and 98.74%
[1]; KP-4, study KP-4 #3, 25 mg/kg, 8h
  % inhibition of DUSP6 vs control: 99.27% and 98.8% and 98.46%
[1]; KP-4, study KP-4 #3, 25 mg/kg, 24h
  % inhibition of DUSP6 vs control: 84.47% and 92.71% and 89.79%
[1]; KP-4, study KP-4 #3, 50 mg/kg, 4h
  % inhibition of DUSP6 vs control: 99.82% and 89.5% and 98.09%
[1]; KP-4, study KP-4 #3, 50 mg/kg, 8h
  % inhibition of DUSP6 vs control: 99.77% and 99.81% and 99.62%
[1]; KP-4, study KP-4 #3, 50 mg/kg, 24h
  % inhibition of DUSP6 vs control: 96.99% and 96.44% and 98.05%
[1]; KP-4, study KP-4 #3, 50 mg/kg, 48h
  % inhibition of DUSP6 vs control: 83.3% and 81.21% and 85.91%
[1]; KP-4, study KP-4 #4, 25 mg/kg, 8h
  % inhibition of DUSP6 vs control: 95.62% and 96.57% and 90.57%
[1]; KP-4, study KP-4 #4, 25 mg/kg, 24h
  % inhibition of DUSP6 vs control: 87.48% and 87.9% and 94.68%
[1]; KP-4, study KP-4 #4, 40 mg/kg, 8h
  % inhibition of DUSP6 vs control: 96.06% and 97.31% and 95.84%
[1]; KP-4, study KP-4 #4, 40 mg/kg, 24h
  % inhibition of DUSP6 vs control: 75.38% and 93.78% and 96.21%
[1]; KP-4, study KP-4 #4, 100 mg/kg, 8h
  % inhibition of DUSP6 vs control: 99.67% and 97.58% and 99.05%
[1]; KP-4, study KP-4 #4, 100 mg/kg, 24h
  % inhibition of DUSP6 vs control: 98.22% and 98.9% and 97.78%
[1]; KP-4, study KP-4 #4, 100 mg/kg, 48h
  % inhibition of DUSP6 vs control: 68.4% and 89.83% and 80.41%
[1]; KP-4, study KP-4 #5, 25 mg/kg, 4h
  % inhibition of DUSP6 vs control: 96.1077% and 90.078% and 87.6997%
[1]; KP-4, study KP-4 #5, 25 mg/kg, 8h
  % inhibition of DUSP6 vs control: 91.9687% and 92.3226% and 98.2581%
[1]; KP-4, study KP-4 #5, 25 mg/kg, 24h
  % inhibition of DUSP6 vs control: 65.5692% and 78.5839% and 66.1607%
[1]; KP-4, study KP-4 #6, 3 mg/kg, 8h
  % inhibition of DUSP6 vs control: 59.13% and 61.2% and 53.53%
[1]; KP-4, study KP-4 #6, 3 mg/kg, 24h
  % inhibition of DUSP6 vs control: 48.26% and 46.44% and 45.31%
[1]; KP-4, study KP-4 #6, 3 mg/kg, 48h
  % inhibition of DUSP6 vs control: 0% and 3.79%
[1]; KP-4, study KP-4 #6, 10 mg/kg, 4h
  % inhibition of DUSP6 vs control: 74.13% and 85.85% and 59.13%
[1]; KP-4, study KP-4 #6, 10 mg/kg, 8h
  % inhibition of DUSP6 vs control: 70.29% and 97.17% and 70.69%
[1]; KP-4, study KP-4 #6, 10 mg/kg, 48h
  % inhibition of DUSP6 vs control: 8.03% and 13.59% and 9.61%
[1]; KP-4, study KP-4 #6, 25 mg/kg, 4h
  % inhibition of DUSP6 vs control: 93.33% and 56.04% and 93.99%
[1]; KP-4, study KP-4 #6, 25 mg/kg, 8h
  % inhibition of DUSP6 vs control: 85.45% and 84.94% and 97.45%
[1]; KP-4, study KP-4 #6, 25 mg/kg, 12h
  % inhibition of DUSP6 vs control: 93.75% and 94.27% and 98.93%
[1]; KP-4, study KP-4 #6, 25 mg/kg, 48h
  % inhibition of DUSP6 vs control: 63.92% and 39.53%
[1]; Mus musculus, KP-4 xenograft tumors, read-out: EC50, inhibition of DUSP6 expression vs RMC-6236 concentration (PK/PD relationship)
  EC50: 454 nM
[1]; Mus musculus, KP-4 xenograft tumors, read-out: EC90, inhibition of DUSP6 expression vs RMC-6236 concentration (PK/PD relationship)
  EC90: 2890 nM
[2]; HPAC #3, 50 mg/kg, 4h
  % inhibition of DUSP6 vs control: 99.6% and 99.3%
[2]; HPAC #3, 50 mg/kg, 8h
  % inhibition of DUSP6 vs control: 99.8% and 99.7%
[2]; HPAC #3, 50 mg/kg, 24h
  % inhibition of DUSP6 vs control: 99.9% and 99.8%
[2]; HPAC #3, 50 mg/kg, 48h
  % inhibition of DUSP6 vs control: 99.3% and 98% and 97.1%
[2]; HPAC #4, 3 mg/kg, 4h
  % inhibition of DUSP6 vs control: 8.1% and 58% and 27.9%
[2]; HPAC #4, 3 mg/kg, 8h
  % inhibition of DUSP6 vs control: 54.7% and 65.2% and 84.3%
[2]; HPAC #4, 3 mg/kg, 24h
  % inhibition of DUSP6 vs control: 0% and 40.8% and 37.2%
[2]; HPAC #4, 3 mg/kg, 48h
  % inhibition of DUSP6 vs control: 0% and 22.7% and 33.9%
[2]; HPAC #4, 10 mg/kg, 4h
  % inhibition of DUSP6 vs control: 93.6% and 96.1% and 97.9%
[2]; HPAC #4, 10 mg/kg, 8h
  % inhibition of DUSP6 vs control: 98.9% and 99.6% and 97.1%
[2]; HPAC #4, 10 mg/kg, 24h
  % inhibition of DUSP6 vs control: 80.3% and 56.7% and 91.1%
[2]; HPAC #4, 10 mg/kg, 48h
  % inhibition of DUSP6 vs control: 8.1% and 47% and 59.6%
[2]; HPAC #4, 25 mg/kg, 4h
  % inhibition of DUSP6 vs control: 99.6% and 97.7% and 93.3%
[2]; HPAC #4, 25 mg/kg, 8h
  % inhibition of DUSP6 vs control: 99.9% and 99.4% and 99.8%
[2]; HPAC #4, 25 mg/kg, 24h
  % inhibition of DUSP6 vs control: 99.3% and 99.2% and 99.6%
[2]; HPAC #4, 25 mg/kg, 48h
  % inhibition of DUSP6 vs control: 97.6% and 96.7% and 87.9%
[2]; HPAC #11, 0.3 mg/kg, 4h
  % inhibition of DUSP6 vs control: 0% and 41.7%
[2]; HPAC #11, 0.3 mg/kg, 8h
  % inhibition of DUSP6 vs control: 9.1% and 10.7% and 76.7%
[2]; HPAC #11, 0.3 mg/kg, 24h
  % inhibition of DUSP6 vs control: 0%
[2]; HPAC #11, 0.3 mg/kg, 48h
  % inhibition of DUSP6 vs control: 0%
